Experimental data from patent US20240175819A1, “DIAGNOSTIC TEST” (THE UNIVERSITY OF WARWICK, priority 2022, published 2024).

Test system: E. coli
Assay: Hydrogel biosensors with encapsulated antibiotic spiked with E. coli; inhibition of bacterial growth by antibiotic release (FIG. 6)
Format: cell-based
Conditions: antibiotic encapsulated within crosslinked hydrogel network, photographs
Excerpt: FIG. 6 is a series of photographs of biosensors each comprising a different antibiotic wherein bacterial growth is inhibited as a result of antibiotic release from the hydrogel network;
Referring now to FIG. 6, there is shown photographs of three biosensors 6A, 6B, 6C each comprising a different antibiotic encapsulated within the crosslinked hydrogel network. Biosensor 6A comprises the antibiotic chloramphenicol, biosensor 6B comprises the antibiotic kanamycin, and biosensor 6C comprises the antibiotic ampicillin. The biosensors 6A, 6B, 6C were spiked with E. coli. In each case, it is shown that there is antibacterial activity in the area surrounding the spiked portion of hydrogel. Therefore, in these cases, E. coli. is shown to be susceptible to the antibiotics encapsulated within the biosensors 6A, 6B, 6C.

Structure (SMILES) | susceptibility of E. coli to the antibiotic encapsulated within the biosensor (antibacterial activity in the area surrounding the spiked portion of hydrogel)
CC1(C)S[C@@H]2[C@H](NC(=O)[C@H](N)c3ccccc3)C(=O)N2[C@H]1C(=O)O [ampicillin] | susceptible
O=C(N[C@H](CO)[C@H](O)c1ccc([N+](=O)[O-])cc1)C(Cl)Cl [chloramphenicol] | susceptible
